# Reference: patent US7361681B2, “Method of treating amytrophic lateral sclerosis using melatonin” (SYGNIS Bioscience GmbH & Co. KG, priority 2003, dated 2008)
# Several values for one entry are separate records, joined by “and”; a condition that tells them apart may be missing. Equal values may be shown once.
# Columns and labels:
# [1] = tested on: SODG93A-transgenic mice
# Description: Rotarod failure is defined to start when mice are no longer able to stay in the rotarod for more than 300 sec (=early disease state).
# Shown are days after score 1 (abnormal hindlimb reflex or tremor in at least one extremity or asymmetrical gait) to score 4 (endpoint criteria/death).
# Melatonin was continuously applied via drinking water (0.5 mg/ml of water containing 1% of ethanol to enable a saturated solution of melatonin) starting on day 28 of life and continued until death. The vehicle control received water containing 1% of ethanol.
# [2] = tested on: ALS patients; experiment: pilot program of chronic high-dose melatonin in ALS patients; type: in vivo, human
# Description: Three ALS patients with an estimated onset of disease 2-4 yr previously, were included in a pilot program in Göttingen, set up to explore potential effects and side-effects of chronic high-dose melatonin in this condition. Intraindividual follow-up (upon entering the study, and after 1, 2, 6, 9 and 13 months of treatment thus far) included physical examination/clinical rating scales (ALS functional rating scale, ALSFRS), pulmonary function test, EMG-NCV, routine laboratory parameters, psychological rating scales, as well as magnetic resonance imaging and MR spectroscopy. Patients received 30-60 mg of melatonin as an oral slow release formulation in the late evening. In addition, they continued their “regular medication” in the morning and at noon (RIUZOLE® 50-100 mg, vitamins C and E, creatine, […]).
# [3] = cited from earlier work
# [4] = 30-60 mg melatonin oral slow release in the late evening, up to 13 months
structure (smiles),measurement,setting,value
"COc1ccc2[nH]cc(CCNC(C)=O)c2c1 [melatonin, N-acetyl-5-methoxytryptamine]","survival and course of disease (rotarod performance, progression of paresis, weight loss)","[1]; 0.5 mg/ml in drinking water with 1% ethanol, from day 28 of life until death",significant improvement
same,adverse effects of systemic melatonin,"[1]; 0.5 mg/ml in drinking water, application of several months",No adverse effects
same,"days from rotarod failure (no longer able to stay more than 300 sec) to death, versus vehicle","[1]; SODG93A mice, n=9-12 per group, FIG. 1",significantly more
same,"days from clinical score 1 to score 4 (endpoint criteria/death), versus vehicle","[1]; SODG93A mice, n=9-12 per group, FIG. 2",significantly more
same,side effects reported or detected,[2]; [4],No side effects
same,signs of fatigue,[2]; [4],no signs of fatigue
same,tolerability over the entire observation period,"[2]; 30-60 mg melatonin oral slow release in the late evening, up to 13 months, plus regular medication",well tolerated
same,"clinical laboratory parameters (blood cell count, electrolytes, liver enzymes, creatinine, CRP etc.) during melatonin treatment",[2]; 30-60 mg melatonin oral slow release nightly,did not show alterations
same,clinical rating scale (ALSFRS) one year later,"[2]; three patients, 30-60 mg melatonin oral slow release nightly",22 and 11 and 20
same,clinical rating scale (ALSFRS) at the start of the trial,"[2]; three patients, baseline",34 and 25 and 31
same,crossing of the blood-brain barrier,[3]; in vivo,readily crosses
same,duration of high plasma levels,[3]; slow release preparations,about 6 hr
